From US9907795B2, “Method of treatment of chronic cough administering orvepitant in combination with other therapeutic agents” (NeRRe Therapeutics Limited, priority 2016, dated 2018)
Structures can show the parent of a compound that is named as a salt.

Legend:
Type in all cases: in vivo, human
[1] = system: patients with a diagnosis of chronic treatment-refractory cough; assay: Cough-specific Quality of Life Questionnaire (CQLQ), open-label pilot study
Description: (§1) Orvepitant maleate Form 1 was evaluated in an open-label pilot study to determine the efficacy of multiple dosing in male and female patients with a diagnosis of chronic treatment-refractory cough for over 3 months. The study was a single-arm (30 mg orvepitant maleate Form 1 once daily), 4-week study with a 4 week follow-up. There were five scheduled clinic visits; Screening visit, Baseline visit, Week 1 visit, Week 4 visit (end of treatment period) and a Week 8 Follow-up visit. The following instruments were used to assess efficacy: • Subjects were fitted with an ambulatory cough monitor (ACM) to record objective cough frequency over 24 hours at Screening, Weeks 1, 4 and 8 • Cough-specific Quality of Life Questionnaire (CQLQ): Subjects were asked to complete this questionnaire at Screening, Weeks 1, 4 and 8 • Global Rating of Change for Cough Frequency & Severity Scale: Subjects were asked to complete this scale at Weeks 1, 4 and 8 • Cough Severity VAS: Subjects were issued with diaries for daily recording of Cough Severity VAS scores. 13 subjects were enrolled into the study and provided data on cough frequency, Cough QOL, Global Rating of Change for Cough Frequency and Severity, and Cough Severity VAS, but one of the 13 subjects had data missing on cough frequency (day and night) at week 4.

[2] = system: patients with a diagnosis of chronic treatment-refractory cough; assay: Cough Severity VAS (daily diary), open-label pilot study
Description: as §1

[3] = system: patients with a diagnosis of chronic treatment-refractory cough; assay: Global Rating of Change for Cough Frequency & Severity Scale, open-label pilot study
Description: as §1

[4] = system: patients with a diagnosis of chronic treatment-refractory cough; assay: Objective cough frequency by ambulatory cough monitor, open-label pilot study; conditions: for daytime objective cough frequency, mean change from Baseline: Week 4 (end of treatment) vs Baseline, 30 mg once daily, p<0.001, primary endpoint
Description: as §1, with “4. The primary endpoint was change in objective daytime cough frequency at the end of the treatment period at Week 4 compared to Baseline.” for “4.”

Cc1cc(F)ccc1[C@H]1C[C@@H](N2CCN3C(=O)CC[C@H]3C2)CCN1C(=O)N(C)[C@H](C)c1cc(C(F)(F)F)cc(C(F)(F)F)c1 [Orvepitant maleate Form 1, 2-(R)-(4-Fluoro-2-methyl-phenyl)-4-(S)-((8aS)-6-oxo-hexahydro-pyrrolo[1,2-α]-pyrazin-2-yl)-piperidine-1-carboxylic acid [1-(R)-(3,5-bis-trifluoromethyl-phenyl)-ethyl]-methylamide maleate]
CQLQ Overall score, mean change from Baseline ([1]; Week 1, p<0.001): −4.0
CQLQ Overall score, mean change from Baseline ([1]; Week 4, p=0.005): −4.4
CQLQ Overall score, mean change from Baseline ([1]; Week 8, p=0.033): −3.4
CQLQ Extreme Physical domain, change from Baseline ([1]; Weeks 1, 4 and 8): significant changes from Baseline
CQLQ Psychosocial domain, change from Baseline ([1]; Weeks 1, 4 and 8): significant changes from Baseline
CQLQ Overall score, difference ([1]; between Weeks 4 and 8, p=0.52): no significant difference
CQLQ, any of the domains, change ([1]; from Week 4 to Week 8): no significant changes
CQLQ Emotional domain, change ([1]; in vivo): No significant changes
night-time cough severity VAS, average change from Baseline ([2]; Week 1 of study, p=0.01): −14%
daytime cough severity VAS, average change from Baseline ([2]; Week 2 of study, p=0.002): −39%
daytime cough severity VAS, average change from Baseline ([2]; Week 6 of study, p=0.001): −14%
night-time cough severity VAS, average change from Baseline ([2]; Week 6 of study, p=0.017): −18%
Global Rate of Change, cough frequency: subjects who felt worse ([3]; Week 1): No subjects felt worse
Global Rate of Change, cough severity: subjects who felt worse ([3]; Week 1): No subjects felt worse
Global Rate of Change, cough frequency: median improvement score ([3]; Week 1, 3 = somewhat better): 3
Global Rate of Change, cough severity: median improvement score ([3]; Week 1, 4 = moderately better): 4
Global Rate of Change, cough frequency: subjects who felt worse ([3]; Week 4): No subjects felt worse
Global Rate of Change, cough severity: subjects who felt worse ([3]; Week 4): No subjects felt worse
Global Rate of Change, cough frequency: median improvement score ([3]; Week 4, 3 = somewhat better): 3
Global Rate of Change, cough severity: median improvement score ([3]; Week 4, 3 = somewhat better): 3
reduction in mean night-time objective cough frequency ([4]; Week 1 vs Baseline, p=0.19): no significant reduction
daytime objective cough frequency, mean change from Baseline ([4]; negative binomial regression model): −18.9 coughs/hr
daytime objective cough frequency, mean change from Baseline [4]: −26%
reduction in mean night-time objective cough frequency ([4]; Week 4 vs Baseline, p=0.65): no significant reduction
change in daytime objective cough frequency ([4]; Week 8 compared to Week 4, p=0.86): no significant change
reduction in mean night-time objective cough frequency ([4]; between Weeks 4 and 8, p=0.10): no significant reduction
